Reference: patent publication US10751378B2, “Pharmaceutical composition comprising Pistacia weinmannifolia extract, fraction of same or compound separated from same for preventing or treating chronic obstructive pulmonary disease (COPD)” (Korea Research Institute of Bioscience and Biotechnology, priority 2014, dated 2020)

Key:
H292 cells = experiment: Cytotoxicity test: H292 cell viability (CCK-8); assay type: cell-based, human; conditions: 24 hours, negative control (0.2% DMSO) = 100%
Procedure: To confirm the cytotoxicity of a Pistacia weinmannifolia extract, a fraction thereof, and a compound isolated therefrom, which were prepared and extracted in Example 1, experiments were performed by applying the method described in the existing references (Ishiyama et al., Talanta, 44, pp. 1299-1305, 1997; Tominaga et al., Anal. Commun., 36, pp. 47-50, 1999).
H292 (CRL-1848) was purchased from the American Type Culture Collection (ATCC). The H292 cells were cultured in RPMI medium (SH30027.01, RPMI 1640, Gibco) containing 10% fetal bovine serum and antibiotics, and cultured in the condition of humidified 5% CO2 atmosphere at 37° C. TNF-α was purchase from a company (300-01A, Peprotech, USA) and used.
The cells in a medium (GM) were placed in a 96-well plate at a density of (1×10^3 cells/well). After 24 hours, the cells were cultured along with a sample for one day. The cell viability rate was read via trivalues according to the manufacturer's manual using the Cell Counting Kit-8 (CK04-01, Dojindo Molecular Technologies, ML). The absorbance was measured using the VERSAmax microplate reader (SMP500-14915, Molecular Devices, USA) and the measured absorbance was converted into a cell number via a standard curve.
H292 cells, human mucosa cells of lung cancer, were suspended in RPMI medium (Gibco) containing 10% fetal bovine serum in a concentration of 5×10^4 cells/mL, inoculated to a 96 well-plate in an amount of 100 μL per each well, and allowed to be attached thereto for 12 hours. Six active fractions of Pistacia and 3 single compounds (PW11, PW12, and PW13) were treated according to concentrations, and cultured for 24 hours. As explained in the cell counting CCK-8 kit (Dojindo Molecular Technologies, ML), the CCK-8 solution (10 μL) was mixed with the medium (90 μL). The mixture (100 μL) was added to each well, reacted for the minimum 30 minutes to the maximum 4 hours, and the absorbance was measured at 570 nm. The cell viability was calculated according to Equation 1 above with reference to the negative control, which was treated with DMSO in a concentration of 0.2%, set at 100%. Cell Viability (%)=[value at OD 570 nm after treatment with an extract/value at OD 570 nm (negative control)]×100 [Equation 1]

MUC5AC = experiment: Inhibition of MUC5AC protein production induced by TNF-α (immunoassay of supernatant); assay type: cell-based; conditions: TNF-α 20 ng/mL; for inhibition at 0.125 µM / inhibition at 0.25 µM / inhibition at 0.5 µM / inhibition at 1 µM: read-out: Inhibition Rate (%) of MUC5AC production
From the text: To analyze the effects of the Pistacia weinmannifolia extract, a fraction thereof, and a compound isolated therefrom, prepared and extracted in Example 1, on the prevention and treatment of inflammatory diseases such as COPD, the inhibitory effect of the Pistacia weinmannifolia extract, a fraction thereof, and a compound isolated therefrom against the secretion of a related protein, MUC5AC. In this regard, to confirm the inhibitory effect of the samples in Examples on the production of MUC5AC protein, experiments were performed using the method described in the reference (Sikder, M A. et al., Phytotherapy research: PTR. 28, 62-8, 2014).
The supernatant, which was recovered for the immunoassay of the produced MUC5AC, was aliquoted into a 96 well-plate in an amount of 50 μL and dried in a homeostat set at 50° C. The resultant was washed with PBS containing 1% BSA, reacted with MUC5AC antibody (ab3649, abcam) at room temperature for one hour, and aliquoted with the secondary antibody and reacted for one hour. The resultant was rewashed, reacted with 3,3′,5,5′-tetramethylbenzidine peroxide solution (54827-17-7, Sigma-Aldrich) for 20 minutes, and the reaction was stopped with a sulfuric acid solution and the coloration was measured at 450 nm using a microplate reader (VERSAmax microplate reader, SMP500-14915, Molecular Devices, USA).

O=C(/C=C/c1ccc(Oc2ccc(/C=C/C(=O)c3ccc(O)cc3O)cc2O)cc1)c1ccc(O)cc1O [Compound PW12]
H292 Cell Viability Rate (%, Mean ± SD) (H292 cells; 0.125 μM): 95.80 ± 2.90%
H292 Cell Viability Rate (%, Mean ± SD) (H292 cells; 0.25 μM): 96.47 ± 3.21%
H292 Cell Viability Rate (%, Mean ± SD) (H292 cells; 0.5 μM): 104.50 ± 1.32%
H292 Cell Viability Rate (%, Mean ± SD) (H292 cells; 1 μM): 115.88 ± 0.50%
Amount of MUC5AC Secretion (Relative % to TNF-α Treated Group) (MUC5AC; Conc. 0.125 μM): 75.77 ± 7.66%
inhibition at 0.125 µM (MUC5AC; Conc. 0.125 μM): 24.2%
Amount of MUC5AC Secretion (Relative % to TNF-α Treated Group) (MUC5AC; Conc. 0.25 μM): 74.23 ± 12.98%
inhibition at 0.25 µM (MUC5AC; Conc. 0.25 μM): 25.8%
Amount of MUC5AC Secretion (Relative % to TNF-α Treated Group) (MUC5AC; Conc. 0.5 μM): 69.50 ± 5.37%
inhibition at 0.5 µM (MUC5AC; Conc. 0.5 μM): 30.5%
Amount of MUC5AC Secretion (Relative % to TNF-α Treated Group) (MUC5AC; Conc. 1 μM): 69.74 ± 8.56%
inhibition at 1 µM (MUC5AC; Conc. 1 μM): 30.3%

O=C(/C=C/c1ccc(Oc2ccc([C@@H]3[C@@H](C(=O)c4ccc(O)cc4O)[C@H](C(=O)c4ccc(O)cc4O)[C@H]3c3ccc(O)cc3)cc2O)cc1)c1ccc(O)cc1O [Compound PW13, di-(2,4-dihydroxybenzoyl)-(3,4-dihydroxyphenyl)-(4-hydroxyphenyl)-cyclobutane-3-O-4′-bichalcone]
H292 Cell Viability Rate (%, Mean ± SD) (H292 cells; 0.125 μM): 104.80 ± 2.34%
H292 Cell Viability Rate (%, Mean ± SD) (H292 cells; 0.25 μM): 103.53 ± 3.07%
H292 Cell Viability Rate (%, Mean ± SD) (H292 cells; 0.5 μM): 126.28 ± 7.75%
H292 Cell Viability Rate (%, Mean ± SD) (H292 cells; 1 μM): 71.92 ± 5.47%
Amount of MUC5AC Secretion (Relative % to TNF-α Treated Group) (MUC5AC; Conc. 0.125 μM): 83.92 ± 9.77%
inhibition at 0.125 µM (MUC5AC; Conc. 0.125 μM): 16.1%
Amount of MUC5AC Secretion (Relative % to TNF-α Treated Group) (MUC5AC; Conc. 0.25 μM): 82.39 ± 3.10%
inhibition at 0.25 µM (MUC5AC; Conc. 0.25 μM): 17.6%
Amount of MUC5AC Secretion (Relative % to TNF-α Treated Group) (MUC5AC; Conc. 0.5 μM): 77.30 ± 2.33%
inhibition at 0.5 µM (MUC5AC; Conc. 0.5 μM): 22.7%
Amount of MUC5AC Secretion (Relative % to TNF-α Treated Group) (MUC5AC; Conc. 1 μM): 73.76 ± 2.68%
inhibition at 1 µM (MUC5AC; Conc. 1 μM): 26.2%
